{"source": "paper PMC11989212", "about": "“Experimental Conditions to Retrieve Intrinsic Cooperativity α Directly from Single Binding Assay Data Exemplified by the Ternary Complex Formation of FKBP12, MAPRE1 and Macrocyclic Molecular Glues” (International Journal of Molecular Sciences, 2025)", "key": {"[1]": {"target": "FKBP12 in the presence of MAPRE1 (Homo sapiens, UniProt P62942+Q15691)", "sequence (P62942 whole entry)": "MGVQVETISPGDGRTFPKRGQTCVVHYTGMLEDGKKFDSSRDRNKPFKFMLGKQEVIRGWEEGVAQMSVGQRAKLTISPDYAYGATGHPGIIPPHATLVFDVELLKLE", "sequence (Q15691 whole entry)": "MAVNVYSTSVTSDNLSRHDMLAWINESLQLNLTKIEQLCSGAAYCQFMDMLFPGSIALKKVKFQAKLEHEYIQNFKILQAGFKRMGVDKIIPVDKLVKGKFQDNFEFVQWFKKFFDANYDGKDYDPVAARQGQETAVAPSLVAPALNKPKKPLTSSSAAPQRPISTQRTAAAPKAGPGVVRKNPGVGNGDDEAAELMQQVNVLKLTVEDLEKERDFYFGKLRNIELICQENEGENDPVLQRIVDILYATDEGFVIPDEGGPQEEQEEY", "experiment": "Spectral shift target engagement assay, binding to FKBP12 in the presence of 10 μM MAPRE1 (ternary)", "excerpt": "(§1) Our method of choice is the spectral shift method, which monitors binding events on the target isothermally and in equilibrium via an environment-sensitive near-infrared fluorophore. In the case of target engagement, either the proximity of the ligand towards the dye or structural changes occurring in the target as a result of binding lead to a change in the chemical environment of the fluorophore. Those changes affect the physiochemical properties of the reporter fluorophore and translate into either blue or red shifts (or peak broadening) of emission peaks upon ligand binding, which can be sensitively monitored by simultaneously recording the fluorescence at two wavelengths (i.e., at 650 nm and 670 nm). Calculating the ratio between the two fluorescence channels then allows to monitor subtle emission shifts that occur as a result of target engagement. Affinity measurements can then be performed by recording the spectral shift as a function of ligand concentration.\nBinding studies through FKBP12: To monitor the binding of R,--SLF-11 by the stronger binding FKBP12 in the absence and in the presence of 10 μM MAPRE1 via %Cbound, binary and %Cbound, ternary, respectively, the concentration of reversibly NTA-labeled FKBP12 was limited to [Ctot] = 40 nM. […] In contrast to the experimental setup in the previous two binding experiments with monitoring through the weaker binding protein MAPRE1, where the applied protein concentrations were optimally chosen, this is not the case for the binding experiment through the stronger binder FKBP12. First of all, the applied excess of T with [Ttot] = 10 μM is roughly 20000-fold off of the proposed 100 times KT,1 threshold, which would correspond to 180 mM. Only under such excess conditions of T can the equilibrium of forming TL under the constraint that all ligand L is bound to T be reached to ensure that [Ltot] approaches the “ligand” concentration [TL]. […] If KC,2 is sufficiently high, the 20 nM deviation to correct for the protein concentration could be neglected. However, the resulting calculated value for KC,2 is 0.023 nM, accounting for the cooperativity α = 10,405 and KC,1 = 234 nM as derived by the MAPRE1 experiment. This value is far below the applied protein concentration of [Ctot] = 40 nM and makes it infeasible to estimate KC,2 from the EC50 of the %Cbound, ternary curve. Consequently, the EC50 shifts, meaning the apparent cooperativity, from monitoring the binding by the stronger binding protein C are diverging from the underlying intrinsic cooperativity α. […] The deviation of calculated (254 nM/24.2 nM = 10.5) and measured apparent cooperativity (254 nM/66 nM = 3.8) can be explained by a negative cooperativity induced by the His6-NTA tag of FKBP12. Studies to lower [Ctot] and identify a better position for the spectral shift tag on FKBP12 are ongoing (Figure 6a).\n(§2) His-tagged FKBP12 was labeled using the His-Tag Labeling Kit RED-tris-NTA 2nd Generation (MO-L018; NanoTemper Technologies GmbH). The affinity between NTA dye and the His-tag of FKBP12 was determined as 7 nM. MAPRE1 was labeled using the Protein Labeling Kit RED-NHS 2nd Generation (MO-L011; NanoTemper Technologies GmbH). In brief, 10 µM of MAPRE1 was incubated with a 3-fold molar excess of fluorophore for 30 min. The unreacted fluorophore was removed by performing a size exclusion purification (B-column). Collecting the protein fraction yielded 1.8 µM labeled MAPRE1, with a degree of labeling of 0.8, as determined on a Nanodrop.\nA 1:2 dilution series of all compounds (starting from the 10 mM stock concentration) was prepared in pure DMSO. Each concentration was diluted 25-fold with assay buffer (20 mM HEPES, pH 7.4, 150 mM NaCl, 1 mM DTT (all from Carl Roth, Karlsruhe, Germany), and 0.01% Pluronic F-127 (Sigma Aldrich, Taufkirchen, Germany)). Next, 10 µL from each of the prepared ligand dilutions was transferred into an empty well on a Dianthus Microwell Plate (DI-P001A). […]"}, "[2]": {"test_system": "FKBP12:R,S-SLF-X:MAPRE1 ternary complex", "set-up": "method as in PMID 40059881", "settings": "TR-FRET proximity assay, reported earlier; cited from earlier work"}, "[3]": {"target": "T1, MAPRE1 in the presence of FKBP12 (Homo sapiens, UniProt P62942+Q15691)", "T1 construct": "His-tag (N)", "experiment": "Spectral shift target engagement assay, binding to MAPRE1 in the presence of 10 μM FKBP12 (ternary)", "excerpt": "as §1\nBinding study through MAPRE1: MAPRE1 was labeled via lysines using an NHS-conjugated dye. The final concentration of MAPRE1NHS (referring to [Ttot]) was 5 nM. Compounds could be titrated up to a concentration of 200 μM (referring to [Ltot]). […] However more accuracy could only be achieved at higher ligand concentrations—ideally at full target saturation. However, this was experimentally infeasible due to assay conditions (i.e., the requirement of maintaining a certain DMSO concentration or avoiding solubility issues of the ligand). Although the determined KT,1 values of binding to MAPRE1 are only approximations, their relative ranking reflects the underlying differences in the affinity of the ligands L to MAPRE1. Performing these experiments in duplicates confirmed the high signal-to-noise ratio, i.e., there was no significant deviation between the two curves, indicating a high accuracy of the interpolated EC50 values. Due to the low [Ttot] = 5 nM, this value coincides with KT,1 (1.8 mM − 0.005 mM/2 ≈ 1.8 mM). […] Consequently, KT,2 corresponds to 173 nM and not 177.5 nM.\nas §2\nA 1:2 dilution series of all compounds (starting from the 10 mM stock concentration) was prepared in pure DMSO. Each concentration was diluted 25-fold with assay buffer (20 mM HEPES, pH 7.4, 150 mM NaCl, 1 mM DTT (all from Carl Roth, Karlsruhe, Germany), and 0.01% Pluronic F-127 (Sigma Aldrich, Taufkirchen, Germany)). Next, 10 µL from each of the prepared ligand dilutions was transferred into an empty well on a Dianthus Microwell Plate (DI-P001A). Another 10 µL of 2-fold concentrated labeled protein (either in the absence or the presence of 20 µM counter protein, both in assay buffer then yielded the final assay concentrations. Interaction measurements were prepared in duplicates for each condition. For binary interactions of compounds with MAPRE1, a final target concentration of 5 nM and a highest ligand concentration of 50 µM was prepared. For ternary interactions of compounds and MAPRE1 in the presence of 10 µM unlabeled FKBP12, the highest ligand concentration was increased to 200 µM, the highest concentration achievable while maintaining a constant 2% DMSO concentration. For all interactions measured via FKBP12, the target was prepared at a final concentration of 40 nM, supplemented with 5 nM NTA fluorophore. […]"}}, "note": "Several values for one entry are separate records, joined by “and”; a condition that tells them apart may be missing. Equal values may be shown once. Read-outs that look alike come from different tables or passages of the source."}
{"smiles": "C=C1CCN2C(=O)COc3cccc(c3)C(CCc3ccc(OC)c(OC)c3)OC(=O)C3CCCCN3C(=O)C(=O)C(C)(C)COC(=O)C(CN)NC(=O)C2C1", "note": "(centres unmarked) [R,S-SLF-7]", "values": [{"measurement": "EC50", "setting": "[1]; 40 nM FKBP12-NTA, 10 μM MAPRE1, read-out: EC50 of the %Cbound, ternary curve (measured)", "result": 110, "unit": "nM"}, {"measurement": "EC50", "setting": "[1]; calculated with the model using α from MAPRE1 binding, read-out: calc EC50 of the %Cbound, ternary curve", "result": 48, "unit": "nM"}, {"measurement": "TR-FRET Recruitment Assay (%Amax)", "setting": "[2]", "result": 45, "unit": "%"}, {"measurement": "EC50", "setting": "[3]; 5 nM MAPRE1-NHS, 10 μM FKBP12, read-out: EC50 of the %Tbound, ternary curve", "result": 1990, "unit": "nM"}, {"measurement": "Ratio [Ctot]/KC,1", "setting": "[3]; [Ctot] = 10 μM FKBP12", "result": 60}, {"measurement": "100 × (EC50 %Tbound ternary − 0.5 [Ttot] − KT,2)/KT,2", "setting": "[3]; difference between EC50 of the %Tbound, ternary curve and KT,2, [Ttot] = 5 nM", "result": "2% and 2.1%"}, {"measurement": "Intrinsic cooperativity α", "setting": "[3]; from KC,1, KT,1 and EC50 of the %Tbound, ternary curve with the mathematical model, [Ctot] = 10,000 nM, [Ttot] = 5 nM", "result": 237}, {"measurement": "Kd", "setting": "[3]; ternary Kd, model-based ([CL] at [Ltot] = EC50), read-out: KT,2", "result": 1940, "unit": "nM"}]}
